# Laboratory results reported in patent US20250262201A1, “COMPOUNDS AND METHODS USEFUL FOR STABILIZING PHENYLALANINE HYDROXYLASE MUTATIONS” (Agios Pharmaceuticals, Inc., priority 2022, published 2025).
# Target: T1, human PAH with the R408W mutation (Homo sapiens, UniProt P00439, R408W)
# T1 construct: expressed in transfected cells
# T1 sequence (P00439 1-452 R408W): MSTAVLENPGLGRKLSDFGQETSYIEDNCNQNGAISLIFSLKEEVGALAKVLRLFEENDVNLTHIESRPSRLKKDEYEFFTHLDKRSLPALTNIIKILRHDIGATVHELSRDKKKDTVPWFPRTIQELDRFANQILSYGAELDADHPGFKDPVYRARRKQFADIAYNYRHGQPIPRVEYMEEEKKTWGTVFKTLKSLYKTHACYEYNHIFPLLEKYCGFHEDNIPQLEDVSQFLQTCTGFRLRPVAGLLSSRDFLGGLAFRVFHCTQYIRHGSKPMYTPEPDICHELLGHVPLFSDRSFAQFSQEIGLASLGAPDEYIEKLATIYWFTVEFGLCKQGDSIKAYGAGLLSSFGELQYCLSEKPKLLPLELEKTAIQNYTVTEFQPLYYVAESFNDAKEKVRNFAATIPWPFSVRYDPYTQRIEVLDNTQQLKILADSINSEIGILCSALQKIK
# Assay: Cell Based Phenylalanine Flux Assay
# Details: A375 cells expressing human R408W PAH; 24 hrs compound incubation; 13C-Tyrosine by LC-MS; average where tested multiple times; read-out: AC50
row,Structure (SMILES),AC50 [nM]
1,"CC(C)(F)c1nnc(C(=O)N2CCc3[nH]cnc3[C@H]2c2cc3ccccc3nn2)o1 [Example 218, (S)-(4-(cinnolin-3-yl)-6,7-dihydro-1H-imidazo[4,5-c]pyridin-5(4H)-yl)(5-(2-fluoropropan-2-yl)-1,3,4-oxadiazol-2-yl)methanone]",500 to 1000
2,"O=C(CCc1nccs1)N1CCc2[nH]cnc2[C@H]1c1ccc2ccccc2c1 [Example 219, (R)-1-(4-(naphthalen-2-yl)-6,7-dihydro-1H-imidazo[4,5-c]pyridin-5(4H)-yl)-3-(thiazol-2-yl)propan-1-one]",500 to 1000
3,"O=C(c1cncs1)N1CCc2[nH]cnc2[C@H]1c1ccc2ccccc2c1 [Example 221, (R)-(4-(naphthalen-2-yl)-6,7-dihydro-1H-imidazo[4,5-c]pyridin-5(4H)-yl)(thiazol-5-yl)methanone]",1000 to 5000
4,"O=C(c1cncs1)N1CCc2[nH]cnc2[C@@H]1c1ccc2ccccc2c1 [Example 222, (S)-(4-(naphthalen-2-yl)-6,7-dihydro-1H-imidazo[4,5-c]pyridin-5(4H)-yl)(thiazol-5-yl)methanone]",> 5000
5,"O=C(c1cnc(-c2ccccn2)s1)N1CCc2[nH]cnc2[C@H]1c1ccc2ccccc2c1 [Example 223, (R)-(4-(naphthalen-2-yl)-6,7-dihydro-1H-imidazo[4,5-c]pyridin-5(4H)-yl)(2-(pyridin-2-yl)thiazol-5-yl)methanone]",1000 to 5000
6,"O=C(c1cnc(-c2ccccn2)s1)N1CCc2[nH]cnc2[C@@H]1c1ccc2ccccc2c1 [Example 224, (S)-(4-(naphthalen-2-yl)-6,7-dihydro-1H-imidazo[4,5-c]pyridin-5(4H)-yl)(2-(pyridin-2-yl)thiazol-5-yl)methanone]",> 5000
7,"O=C(c1cnn2ccccc12)N1CCc2[nH]cnc2[C@H]1c1cn2ccccc2n1 [Example 225, (R)-(4-(imidazo[1,2-a]pyridin-2-yl)-6,7-dihydro-1H-imidazo[4,5-c]pyridin-5(4H)-yl)(pyrazolo[1,5-a]pyridin-3-yl)methanone]",< 500
8,"O=C(c1cnn2ccccc12)N1CCc2[nH]cnc2[C@@H]1c1cn2ccccc2n1 [Example 226, (S)-(4-(imidazo[1,2-a]pyridin-2-yl)-6,7-dihydro-1H-imidazo[4,5-c]pyridin-5(4H)-yl)(pyrazolo[1,5-a]pyridin-3-yl)methanone]",> 5000
9,"FC(F)c1nnc(N2CCc3[nH]cnc3[C@H]2c2cn3ccccc3n2)o1 [Example 230, (R)-2-(difluoromethyl)-5-(4-(imidazo[1,2-a]pyridin-2-yl)-6,7-dihydro-1H-imidazo[4,5-c]pyridin-5(4H)-yl)-1,3,4-oxadiazole]",500 to 1000
10,"FC(F)(F)c1cnc(N2CCc3[nH]cnc3[C@H]2c2cn3ccccc3n2)nc1 [Example 231, (R)-4-(imidazo[1,2-a]pyridin-2-yl)-5-(5-(trifluoromethyl)pyrimidin-2-yl)-4,5,6,7-tetrahydro-1H-imidazo[4,5-c]pyridine]",< 500
11,"FC(F)(F)c1cnc(N2CCc3[nH]cnc3[C@@H]2c2cn3ccccc3n2)nc1 [Example 232, (S)-4-(imidazo[1,2-a]pyridin-2-yl)-5-(5-(trifluoromethyl)pyrimidin-2-yl)-4,5,6,7-tetrahydro-1H-imidazo[4,5-c]pyridine]",> 5000

# Further lines, results first:
row,AC50 [nM],Structure (SMILES)
1,> 5000,"Cc1ncoc1C(=O)N1CCc2[nH]cnc2[C@@H]1c1cn2ccccc2n1 [Example 227, (S)-(4-(imidazo[1,2-a]pyridin-2-yl)-6,7-dihydro-1H-imidazo[4,5-c]pyridin-5(4H)-yl)(4-methyloxazol-5-yl)methanone]"
2,1000 to 5000,"Cc1ncoc1C(=O)N1CCc2[nH]cnc2[C@H]1c1cn2ccccc2n1 [Example 228, (R)-(4-(imidazo[1,2-a]pyridin-2-yl)-6,7-dihydro-1H-imidazo[4,5-c]pyridin-5(4H)-yl)(4-methyloxazol-5-yl)methanone]"
3,> 5000,"O=C(c1ocnc1C(F)(F)F)N1CCc2[nH]cnc2[C@@H]1c1cn2ccccc2n1 [Example 233, (S)-(4-(imidazo[1,2-a]pyridin-2-yl)-6,7-dihydro-1H-imidazo[4,5-c]pyridin-5(4H)-yl)(4-(trifluoromethyl)oxazol-5-yl)methanone]"
4,< 500,"O=C(c1ocnc1C(F)(F)F)N1CCc2[nH]cnc2[C@H]1c1cn2ccccc2n1 [Example 234, (R)-(4-(imidazo[1,2-a]pyridin-2-yl)-6,7-dihydro-1H-imidazo[4,5-c]pyridin-5(4H)-yl)(4-(trifluoromethyl)oxazol-5-yl)methanone]"
5,> 5000,"O=C(CC1CC1)N1CCc2[nH]cnc2[C@@H]1c1cn2ccccc2n1 [Example 237, (S)-2-cyclopropyl-1-(4-(imidazo[1,2-a]pyridin-2-yl)-6,7-dihydro-1H-imidazo[4,5-c]pyridin-5(4H)-yl)ethanone]"
6,< 500,"O=C(CC1CC1)N1CCc2[nH]cnc2[C@H]1c1cn2ccccc2n1 [Example 238, (R)-2-cyclopropyl-1-(4-(imidazo[1,2-a]pyridin-2-yl)-6,7-dihydro-1H-imidazo[4,5-c]pyridin-5(4H)-yl)ethanone]"
7,< 500,"O=C(c1oc(C2CC2)nc1C(F)(F)F)N1CCc2[nH]cnc2[C@H]1c1cn2ccccc2n1 [Example 240, (R)-(2-cyclopropyl-4-(trifluoromethyl)oxazol-5-yl)(4-(imidazo[1,2-a]pyridin-2-yl)-6,7-dihydro-1H-imidazo[4,5-c]pyridin-5(4H)-yl)methanone]"
8,> 5000,"O=C(CCC1CC1)N1CCc2[nH]cnc2[C@@H]1c1cn2ccccc2n1 [Example 241, (S)-3-cyclopropyl-1-(4-(imidazo[1,2-a]pyridin-2-yl)-6,7-dihydro-1H-imidazo[4,5-c]pyridin-5(4H)-yl)propan-1-one]"
9,< 500,"O=C(CCC1CC1)N1CCc2[nH]cnc2[C@H]1c1cn2ccccc2n1 [Example 242, (R)-3-cyclopropyl-1-(4-(imidazo[1,2-a]pyridin-2-yl)-6,7-dihydro-1H-imidazo[4,5-c]pyridin-5(4H)-yl)propan-1-one]"
10,1000 to 5000,"O=C(c1ocnc1C1CC1)N1CCc2[nH]cnc2[C@@H]1c1cn2ccccc2n1 [Example 243, (S)-(4-cyclopropyloxazol-5-yl)(4-(imidazo[1,2-a]pyridin-2-yl)-6,7-dihydro-1H-imidazo[4,5-c]pyridin-5(4H)-yl)methanone]"
11,500 to 1000,"O=C(c1ocnc1C1CC1)N1CCc2[nH]cnc2[C@H]1c1cn2ccccc2n1 [Example 244, (R)-(4-cyclopropyloxazol-5-yl)(4-(imidazo[1,2-a]pyridin-2-yl)-6,7-dihydro-1H-imidazo[4,5-c]pyridin-5(4H)-yl)methanone]"
12,500 to 1000,"CC(C)(C)c1ncc(C(=O)N2CCc3[nH]cnc3[C@H]2c2cn3ccccc3n2)s1 [Example 245, (R)-(2-(tert-butyl)thiazol-5-yl)(4-(imidazo[1,2-a]pyridin-2-yl)-6,7-dihydro-1H-imidazo[4,5-c]pyridin-5(4H)-yl)methanone]"
13,> 5000,"CC(C)(C)c1ncc(C(=O)N2CCc3[nH]cnc3[C@@H]2c2cn3ccccc3n2)s1 [Example 246, (S)-(2-(tert-butyl)thiazol-5-yl)(4-(imidazo[1,2-a]pyridin-2-yl)-6,7-dihydro-1H-imidazo[4,5-c]pyridin-5(4H)-yl)methanone]"
